The values that follow come from ChEMBL document CHEMBL4270553, “Synthesis and anticancer activity of new dihydropyrimidinone derivatives” (Eur J Med Chem, 2018).

The first experiment has as its system LOX IMVI. The experiment can be described thus: Antiproliferative activity against human LOXIMVI cells assessed as growth inhibition at 10 uM after 48 hrs by sulforhodamine B assay relative to control. The class given is functional. The note with it: read-out: GI. For orientation: Sulforhodamine B stains cellular protein and so reports cell mass.
As to `CCOC(=O)C1=C(CN2CCCC2)N(C)C(=O)NC1c1ccccc1` (stereo unspecified), the inhibition of growth at 10 µM was determined as 8%.
Same read-out and setting: the value for `CCOC(=O)C1=C(Cn2cc(CO)nn2)N(C)C(=O)NC1c1ccccc1` (stereo unspecified) was 7%.

A further experiment relates to MOLT-4. In words: Antiproliferative activity against human MOLT4 cells assessed as growth inhibition at 10 uM after 48 hrs by sulforhodamine B assay relative to control. The following applies: MOLT-4, 48 h, read-out: GI. In kind it is functional.
As for `CCOC(=O)C1=C(CN2CCCC2)N(C)C(=O)NC1c1ccccc1` (stereo unspecified), the inhibition of growth at 10 µM was 4%.
On the same count and under the same terms, the value for `CCOC(=O)C1=C(Cn2cc(CO)nn2)N(C)C(=O)NC1c1ccccc1` (stereo unspecified) was 11%.

The subject of a further experiment is HCT-15. The experiment can be described thus: Antiproliferative activity against human HCT15 cells assessed as growth inhibition at 10 uM after 48 hrs by sulforhodamine B assay relative to control. In kind it is functional. The following applies: HCT-15, 48 h, read-out: GI.
For the compound `CCOC(=O)C1=C(CN2CCCC2)N(C)C(=O)NC1c1ccccc1` (stereo unspecified), the inhibition of growth at 10 µM came to 6%.
Same read-out and setting: the value for `CCOC(=O)C1=C(Cn2cc(CO)nn2)N(C)C(=O)NC1c1ccccc1` (stereo unspecified) was 6%.

A further experiment deals with T47D. The experiment can be described thus: Antiproliferative activity against human T47D cells assessed as growth inhibition at 10 uM after 48 hrs by sulforhodamine B assay relative to control. The class given is functional. The following applies: read-out: GI.
With `CCOC(=O)C1=C(CN2CCCC2)N(C)C(=O)NC1c1ccccc1` (stereo unspecified), the inhibition of growth at 10 µM is 1%.
Same read-out and setting: the value for `CCOC(=O)C1=C(Cn2cc(CO)nn2)N(C)C(=O)NC1c1ccccc1` (stereo unspecified) was 1%.

The next experiment relates to HL-60(TB). The experiment can be described thus: Antiproliferative activity against human HL-60(TB) cells assessed as growth inhibition at 10 uM after 48 hrs by sulforhodamine B assay relative to control. The note with it: HL-60, 48 h, read-out: GI. The class given is functional.
`CCOC(=O)C1=C(Cn2cc(CO)nn2)N(C)C(=O)NC1c1ccccc1` (stereo unspecified): the inhibition of growth at 10 µM is 2%.

The subject of another experiment is NCI-H322M. The experiment can be described thus: Antiproliferative activity against human NCI-H322M cells assessed as growth inhibition at 10 uM after 48 hrs by sulforhodamine B assay relative to control. In kind it is functional. The following applies: read-out: GI.
With `CCOC(=O)C1=C(CN2CCCC2)N(C)C(=O)NC1c1ccccc1` (stereo unspecified), the inhibition of growth at 10 µM stood at 9%.
The same measure, in the same setting: the result for `CCOC(=O)C1=C(Cn2cc(CO)nn2)N(C)C(=O)NC1c1ccccc1` (stereo unspecified) reads 9%.

The test system of the next experiment is UO-31. The experiment can be described thus: Antiproliferative activity against human UO31 cells assessed as growth inhibition at 10 uM after 48 hrs by sulforhodamine B assay relative to control. The class given is functional. The following applies: UO-31, 48 h, read-out: GI.
As to `CCOC(=O)C1=C(CN2CCCC2)N(C)C(=O)NC1c1ccccc1` (stereo unspecified), the inhibition of growth at 10 µM came out at 8%.
Take `CCOC(=O)C1=C(Cn2cc(CO)nn2)N(C)C(=O)NC1c1ccccc1` (stereo unspecified): the inhibition of growth at 10 µM stood at 7%.

The subject of a further experiment is NCI-H522. The experiment can be described thus: Antiproliferative activity against human NCI-H522 cells assessed as growth inhibition at 10 uM after 48 hrs by sulforhodamine B assay relative to control. The class given is functional. The note with it: NCI-H522, 48 h, read-out: GI.
Consider `CCOC(=O)C1=C(CN2CCCC2)N(C)C(=O)NC1c1ccccc1` (stereo unspecified), for which the inhibition of growth at 10 µM worked out at 4%.
On the same count and under the same terms, the value for `CCOC(=O)C1=C(Cn2cc(CO)nn2)N(C)C(=O)NC1c1ccccc1` (stereo unspecified) was 5%.

A further experiment concerns SF-295. In words: Antiproliferative activity against human SF295 cells assessed as growth inhibition at 10 uM after 48 hrs by sulforhodamine B assay relative to control. The class given is functional. The following applies: SF-295, 48 h, read-out: GI.
`CCOC(=O)C1=C(CN2CCCC2)N(C)C(=O)NC1c1ccccc1` (stereo unspecified): the inhibition of growth at 10 µM stood at 9%.
Still for that read-out and setting: the value for `CCOC(=O)C1=C(Cn2cc(CO)nn2)N(C)C(=O)NC1c1ccccc1` (stereo unspecified) was 4%.

For the next experiment, the system named is NCI/ADR-RES. The experiment can be described thus: Antiproliferative activity against human NCI/ADR-RES cells assessed as growth inhibition at 10 uM after 48 hrs by sulforhodamine B assay relative to control. The class given is functional. The following applies: read-out: GI.
For `CCOC(=O)C1=C(CN2CCCC2)N(C)C(=O)NC1c1ccccc1` (stereo unspecified), the inhibition of growth at 10 µM came to 3%.
Same read-out and setting: the result for `CCOC(=O)C1=C(Cn2cc(CO)nn2)N(C)C(=O)NC1c1ccccc1` (stereo unspecified) reads 4%.

The next experiment deals with K562. The experiment can be described thus: Antiproliferative activity against human K562 cells assessed as growth inhibition at 10 uM after 48 hrs by sulforhodamine B assay relative to control. The following applies: K562, 48 h, read-out: GI. The class given is functional.
As to `CCOC(=O)C1=C(CN2CCCC2)N(C)C(=O)NC1c1ccccc1` (stereo unspecified), the inhibition of growth at 10 µM amounted to 1%.
Still for that read-out and setting: the value for `CCOC(=O)C1=C(Cn2cc(CO)nn2)N(C)C(=O)NC1c1ccccc1` (stereo unspecified) was 10%.

Another experiment concerns HCT-116. In words: Antiproliferative activity against human HCT116 cells assessed as growth inhibition at 10 uM after 48 hrs by sulforhodamine B assay relative to control. The class given is functional. The following applies: HCT-116, 48 h, read-out: GI.
Regarding `CCOC(=O)C1=C(CN2CCCC2)N(C)C(=O)NC1c1ccccc1` (stereo unspecified), the inhibition of growth at 10 µM worked out at 2%.
In the case of `CCOC(=O)C1=C(Cn2cc(CO)nn2)N(C)C(=O)NC1c1ccccc1` (stereo unspecified), the inhibition of growth at 10 µM was found to be 5%.

A further experiment concerns ACHN. In words: Antiproliferative activity against human ACHN cells assessed as growth inhibition at 10 uM after 48 hrs by sulforhodamine B assay relative to control. In kind it is functional. The note with it: read-out: GI.
Take `CCOC(=O)C1=C(Cn2cc(CO)nn2)N(C)C(=O)NC1c1ccccc1` (stereo unspecified): the inhibition of growth at 10 µM is 2%.

The next experiment concerns SR. In words: Antiproliferative activity against human SR cells assessed as growth inhibition at 10 uM after 48 hrs by sulforhodamine B assay relative to control. The class given is functional. The note with it: read-out: GI.
As for `CCOC(=O)C1=C(CN2CCCC2)N(C)C(=O)NC1c1ccccc1` (stereo unspecified), the inhibition of growth at 10 µM turned out to be 10%.
`CCOC(=O)C1=C(Cn2cc(CO)nn2)N(C)C(=O)NC1c1ccccc1` (stereo unspecified): the inhibition of growth at 10 µM stood at 2%.

The next experiment has as its system CAKI-1. The experiment can be described thus: Antiproliferative activity against human Caki1 cells assessed as growth inhibition at 10 uM after 48 hrs by sulforhodamine B assay relative to control. In kind it is functional. The following applies: CAKI-1, 48 h, read-out: GI.
For `CCOC(=O)C1=C(CN2CCCC2)N(C)C(=O)NC1c1ccccc1` (stereo unspecified), the inhibition of growth at 10 µM turned out to be 9%.
On the same count and under the same terms, the result for `CCOC(=O)C1=C(Cn2cc(CO)nn2)N(C)C(=O)NC1c1ccccc1` (stereo unspecified) reads 8%.

For another experiment, the system named is OVCAR-4. The experiment can be described thus: Antiproliferative activity against human OVCAR4 cells assessed as growth inhibition at 10 uM after 48 hrs by sulforhodamine B assay relative to control. The class given is functional. The note with it: OVCAR-4, 48 h, read-out: GI.
Consider `CCOC(=O)C1=C(Cn2cc(CO)nn2)N(C)C(=O)NC1c1ccccc1` (stereo unspecified), for which the inhibition of growth at 10 µM turned out to be 3%.

For a further experiment, the system named is MCF7. The experiment can be described thus: Antiproliferative activity against human MCF7 cells assessed as growth inhibition at 10 uM after 48 hrs by sulforhodamine B assay relative to control. The class given is functional. The note with it: MCF7, 48 h, read-out: GI.
Turning to `CCOC(=O)C1=C(CN2CCCC2)N(C)C(=O)NC1c1ccccc1` (stereo unspecified), the inhibition of growth at 10 µM is 13%.
On to `CCOC(=O)C1=C(Cn2cc(CO)nn2)N(C)C(=O)NC1c1ccccc1` (stereo unspecified), for which the inhibition of growth at 10 µM is 12%.
